Laboratory results from patent US6994991B1, “Identification of differentially methylated multiple drug resistance loci” (North Shore - Long Island Jewish Research Institute, priority 1998, dated 2006).
Like-named read-outs stand apart in the source and are kept apart here.

Tested on: MCF7/AdrR cells
Assay: MTT viability assay of transfected drug resistant cells exposed to drug
Type: cell-based, human
Conditions: for IC50: Homo sapiens; for sensitivity of cells expressing WTH3 to drug: MCF7/AdrR cells transfected with pcDNA/WTH3
From the text: Reversion of MDR phenotype by overexpression of WTH3, RAB6 or RAB6C in MCF7/AdrR cells. WTH3, RAB6 and RAB6C cDNAs were inserted into pcDNA1.1/Amp expression vectors (Invitrogen Corp.) and transfected into drug resistant MCF7/AdrR cells (Lipofect Amine Plus™; Life Technologies, Inc., (GIBCO)). Expression of the exogenous WTH3 (pcDNA/WTH3), RAB6 (pcDNA/RAB6) or RAB6C (pcDNA/RAB6C) genes in transfected cells was confirmed by RT-PCR. Control cells were provided by transfection with pcDNA1.1/Amp which contained no insert. Cells were exposed to various concentrations of doxorubicin and viablity was determined after 72 hours by MTT assay. […] Cells expressing RAB6 or RAB6C cDNAs were tested for sensitivity to doxorubicin. […] The drug resistant control cells were 3.2 (P<0.0001) times more resistant to the antitumor drug than pcDNA/RAB6C containing cells and 2.2 (P<0.0001) times more resistant to the antitumor drug than pcDNA/RAB6 containing cells.

SMILES	IC50 (MCF7, 72 h, control cells transfected with pcDNA1.1/Amp (no insert), viability after 72 hours by MTT, read-out: Mean IC50± SD) [nM]	IC50 (MCF7, 72 h, pcDNA/RAB6C containing cells, viability after 72 hours by MTT, read-out: Mean IC50± SD) [nM]	IC50 (MCF7, 72 h, pcDNA/RAB6 containing cells, viability after 72 hours by MTT, read-out: Mean IC50± SD) [nM]	IC50 (MCF7, MCF7/AdrR cells carrying endogenously expressed RAB6C, read-out: IC50 for doxorubicin) [nM]	sensitivity of cells expressing WTH3 to drug	resistance of control cells relative to pcDNA/RAB6C containing cells (control vs pcDNA/RAB6C cells, P<0.0001) [times]	resistance of control cells relative to pcDNA/RAB6 containing cells (control vs pcDNA/RAB6 cells, P<0.0001) [times]	sensitivity to doxorubicin compared to cells transfected with a control vector (drug resistant cells transfected with a vector which expresses WTH3, RAB6C, or RAB6)
COc1cccc2c1C(=O)c1c(O)c3c(c(O)c1C2=O)C[C@@](O)(C(=O)CO)C[C@@H]3O[C@H]1C[C@H](N)[C@H](O)[C@H](C)O1 [doxorubicin]	4930 ± 300	1530 ± 130	2230 ± 170	1000 to 2500	increased sensitivity	3.2	2.2	increased sensitivity
CC[C@]1(O)C[C@H]2CN(CCc3c([nH]c4ccccc34)[C@@](C(=O)OC)(c3cc4c(cc3OC)N(C=O)[C@H]3[C@@](O)(C(=O)OC)[C@H](OC(C)=O)[C@]5(CC)C=CCN6CC[C@]43[C@@H]65)C2)C1 [vincristine]	–	–	–	–	increased sensitivity	–	–	–
